Measured values taken from patent US5654274A, “Biologically active peptides having N-terminal substitutions” (priority 1995, dated 1997).
Ends that are not written are not given here. Peptide text beside a SMILES is read from it. * marks the point of attachment. Octanoyl = CCCCCCCC(=O)*

Assays:
Assay type in all cases: cell-based
C. albicans = assay: MIC microtiter assay, C. albicans; conditions: Mueller Hinton broth, 16-20 hours at 37° C.
From the text: (§1) Table I, which follows, indicates the Minimal Inhibitory Concentration (MIC) in μg/ml of various peptides, against S. aureus strain ATCC 25923(S), P. aeruginosa strain ATCC 27853(P), and E. coli ATCC strain 25922(E), and C. albicans (CA). […] The peptides ere unsubstituted at the N-terminal, substituted with an acetyl group at the N-terminal as indicated by Ac-; substituted with an octanoyl group at the N-terminal as indicated by Oct-, substituted with sphingosine as indicated by Sph-; substituted with a succinyl group, as indicated by Suc-; substituted with a hexanoyl group, as indicated by Hex-; substituted with a heptanoyl group, as indicated by Hep; substituted with a valeryl group, as indicated by Val-; substituted with, a myristryl group, as indicated by Myr-; or substituted with an ibuprofyl group, as indicated by Ibu-.
The procedure for the antibacterial assay is based upon the guidelines of the National Committee for Clinical Laboratory Standards, Document M7-T2, Volume 8, No. 8, 1988.
Stock solutions of peptides with and without the appropriate substitutions,are prepared at a concentration of 512 μg/ml in sterile deionized distilled water and stored at -70° C. Each peptide is a C-terminal amide.
The stock peptide solution is diluted in serial dilutions (1:2) down the wells of a microtiter plate so that the final concentrations of peptides in the wells are 0.25, 0.50, 1, 2, 4, 8, 16, 32, 64, 128, and 256 μg/ml. 1-5×10^5 CFUs/ml of either S. aureus ATCC 25923, E. coli ATCC 25922, P. aeruginosa ATCC 27853, or C. albicans, were added to the wells in full strength Mueller Hinton broth (BBL 11443) from a mid-log culture. The inoculum is standardized spectrophotometrically at 600 nm and is verified by colony counts. The plates are incubated for 16-20 hours at 37° C., and the minimal inhibitory concentration (MIC) for each peptide is determined. Minimal inhibitory concentration is defined as the lowest concentration of peptide which produces a clear well in the microtiter plate. […]

S. mutans = assay: Anaerobic antimicrobial susceptibility test (NCCLS M11-T2), S. mutans; conditions: BHI broth, 24-48 hours
[1] = tested on: P. aeruginosa strain ATCC 27853; assay: Antibacterial MIC microtiter assay (NCCLS M7-T2), P. aeruginosa; conditions: P. aeruginosa ATCC 27853; Mueller Hinton broth, 16-20 hours at 37° C.
From the text: as §1
(§2) The procedure for the antibacterial assay is based upon the guidelines of the National Committee for Clinical Laboratory Standards, Document M7-T2, Volume 8, No. 8, 1988. […]
(§3) The stock peptide solution is diluted in serial dilutions (1:2) down the wells of a microtiter plate so that the final concentrations of peptides in the wells are 0.25, 0.50, 1, 2, 4, 8, 16, 32, 64, 128, and 256 μg/ml. […] The plates are incubated for 16-20 hours at 37° C., and the minimal inhibitory concentration (MIC) for each peptide is determined. […]

P. gingivalis = assay: Anaerobic antimicrobial susceptibility test (NCCLS M11-T2), P. gingivalis; conditions: 24-48 hours; for MIC P. gingivalis (strain) 9-14K-1: strain 9-14K-1, BHI broth; for MIC P. gingivalis (strain) 381: strain 381, BHI broth; for MIC P. gingivalis (strain) A7A1-28: strain A7A1-28, BHI broth; for MIC P. gingivalis (strain) FAY-19M-1: strain FAY-19M-1, BHI broth; for MIC P. gingivalis (strain) W50: strain W50, BHI broth
A. viscosus = assay: Anaerobic antimicrobial susceptibility test (NCCLS M11-T2), A. viscosus; conditions: BHI broth, 24-48 hours
[2] = tested on: E. coli ATCC strain 25922; assay: Antibacterial MIC microtiter assay (NCCLS M7-T2), E. coli; conditions: E. coli ATCC 25922; Mueller Hinton broth, 16-20 hours at 37° C.
From the text: as §1, §2, §3

[3] = tested on: S. aureus strain ATCC 25923; assay: Antibacterial MIC microtiter assay (NCCLS M7-T2), S. aureus; conditions: S. aureus ATCC 25923; Mueller Hinton broth, 16-20 hours at 37° C.
From the text: as §1, §2, §3

Compound	Minimal Inhibitory Concentration CA (C. albicans)	MIC S. mutans (S. mutans)	Minimal Inhibitory Concentration P [1]	MIC P. gingivalis (strain) 9-14K-1 (P. gingivalis)	MIC P. gingivalis (strain) 381 (P. gingivalis)	MIC P. gingivalis (strain) A7A1-28 (P. gingivalis)	MIC P. gingivalis (strain) FAY-19M-1 (P. gingivalis)	MIC P. gingivalis (strain) W50 (P. gingivalis)	MIC A. viscos (A. viscosus)	Minimal Inhibitory Concentration E [2]	Minimal Inhibitory Concentration S [3]
CCCCCCCC(=O)NCC(=O)N[C@H](C(=O)N[C@@H](CCCCN)C(=O)N[C@@H](CCCCN)C(=O)N[C@@H](Cc1ccccc1)C(=O)N[C@@H](CC(C)C)C(=O)N[C@@H](CCCCN)C(=O)N[C@@H](CCCCN)C(=O)N[C@@H](C)C(=O)NCC(=O)N[C@@H](CCCCN)C(=O)N[C@@H](Cc1ccccc1)C(=O)NCC(=O)N[C@@H](CCCCN)C(=O)N[C@@H](C)C(=O)N[C@@H](Cc1ccccc1)C(N)=O)[C@@H](C)CC [Oct-(SEQ ID NO: 149)-NH2] (Octanoyl-GIKKFLKKAGKFGKAF-NH2)	128 µg/mL	–	–	–	–	–	–	–	–	–	–
CCCCCCCC(=O)N[C@@H](CCCCN)C(=O)N[C@@H](Cc1c[nH]c2ccccc12)C(=O)N[C@@H](CCCCN)C(=O)N[C@@H](CC(C)C)C(=O)N[C@@H](Cc1ccccc1)C(=O)N[C@@H](CCCCN)C(=O)N[C@@H](CCCCN)C(=O)N[C@H](C(=O)N[C@@H](CCC(=O)O)C(=O)N[C@@H](CCCCN)C(=O)N[C@H](C(N)=O)C(C)C)[C@@H](C)CC [Oct-(SEQ ID NO: 136)-NH2] (Octanoyl-KWKLFKKIEKV-NH2)	128 µg/mL	–	–	–	–	–	–	–	–	–	–
(SEQ ID NO: 86)-OH: unsubstituted (Lys Ile Ala Lys Lys Ile Ala)3, C-terminal OH (KIAKKIAKIAKKIAKIAKKIA-OH)	256 µg/mL	16 μl/ml	32 µg/mL	16 μl/ml	16 μl/ml	4 μl/ml	8 μl/ml	4 μl/ml	32 μl/ml	2 µg/mL	128 µg/mL
KIAKKIAKIAKKIAKIAKKIA-NH2 [(SEQ ID NO: 86)-NH2]	–	4 μl/ml	–	8 μl/ml	8 μl/ml	2 μl/ml	8,128 μl/ml	4 μl/ml	16 μl/ml	–	–
(SEQ ID NO: 27)-OH: unsubstituted (Lys Ile Ala Gly Lys Ile Ala)3, C-terminal OH (KIAGKIAKIAGKIAKIAGKIA-OH)	–	–	128 µg/mL	–	–	–	–	–	–	8 µg/mL	128 µg/mL
